From ChEMBL document CHEMBL1201862, “PubChem BioAssay data set” (2004)
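A five-concentration, 48-hour dose response in 96-well plates underlies each endpoint, interpolated linearly between surrounding concentrations. GI50 marks 50% less growth.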 The source made the active and inactive calls. Cut-off read from the data, not from the text of the source: active = GI50 up to about 1.1 µM and inactive = higher.

Experiments:
Assay in all cases: growth of human tumour cells (NCI), 48 h
[1] = tested on: A498
[2] = tested on: A549
[3] = tested on: ACHN
[4] = tested on: CAKI-1
[5] = tested on: CCRF-CEM
[6] = tested on: COLO 205
[7] = tested on: DLD-1
[8] = tested on: DMS-114
[9] = tested on: DMS-273
[10] = tested on: EKVX
[11] = tested on: HCC 2998
[12] = tested on: HCT-116
[13] = tested on: HCT-15
[14] = tested on: HL-60
[15] = tested on: HOP-62
[16] = tested on: HOP-92
[17] = tested on: HT-29
[18] = tested on: IGROV-1
[19] = tested on: K562
[20] = tested on: KM-20L2
[21] = tested on: KM12
[22] = tested on: LXFL 529
[23] = tested on: M14
[24] = tested on: M19-MEL
[25] = tested on: MOLT-4
[26] = tested on: Malme-3M
[27] = tested on: NCI-H23
[28] = tested on: NCI-H460
[29] = tested on: NCI-H522
[30] = tested on: OVCAR-3
[31] = tested on: OVCAR-4
[32] = tested on: OVCAR-5
[33] = tested on: OVCAR-8
[34] = tested on: RPMI-8226
[35] = tested on: RXF 393
[36] = tested on: SF-268
[37] = tested on: SF-295
[38] = tested on: SF-539
[39] = tested on: SK-MEL-28
[40] = tested on: SK-MEL-2
[41] = tested on: SK-MEL-5
[42] = tested on: SK-OV-3
[43] = tested on: SN12C
[44] = tested on: SNB-19
[45] = tested on: SNB-75
[46] = tested on: SNB-78
[47] = tested on: SR
[48] = tested on: SW-620
[49] = tested on: TK-10
[50] = tested on: U-251
[51] = tested on: UACC-257
[52] = tested on: UACC-62
[53] = tested on: UO-31
[54] = tested on: XF498
[55] = tested on: 786-0
[56] = tested on: HOP-18
[57] = tested on: LOX IMVI
[58] = tested on: NCI-H226

In the case of CC(OC(C)(C)C)[C@H](NC(=O)OCC(Cl)(Cl)Cl)C(=O)O (stereo not given in full), the GI50 [1] is reported as > 100 µM (inactive), the GI50 [2] is reported as > 100 µM (inactive) and the GI50 [3] is reported as > 100 µM (inactive). For the same compound, the GI50 [4] was > 100 µM (inactive), the GI50 [5] was > 100 µM (inactive) and the GI50 [6] was > 100 µM (inactive). The GI50 [7] was > 100 µM (inactive), the GI50 [8] was > 100 µM (inactive) and the GI50 [9] was > 100 µM (inactive). For the same compound, the GI50 [10] was > 100 µM (inactive), the GI50 [11] was > 100 µM (inactive) and the GI50 [12] was > 100 µM (inactive). For the same compound, the GI50 [13] was > 100 µM, the GI50 [14] was > 100 µM (inactive) and the GI50 [15] was > 100 µM (inactive). For the same compound, the GI50 [16] was > 100 µM (inactive), the GI50 [17] was > 100 µM (inactive) and the GI50 [18] was > 100 µM (inactive). The GI50 [19] was > 100 µM (inactive), the GI50 [20] was > 100 µM (inactive) and the GI50 [21] was > 100 µM (inactive). The GI50 [22] was > 100 µM (inactive), the GI50 [23] was > 100 µM (inactive) and the GI50 [24] was > 100 µM (inactive). The GI50 [25] was > 100 µM (inactive), the GI50 [26] was > 100 µM (inactive) and the GI50 [27] was > 100 µM (inactive). The GI50 [28] was > 100 µM (inactive), the GI50 [29] was > 100 µM (inactive) and the GI50 [30] was > 100 µM (inactive). The GI50 [31] was > 100 µM (inactive), the GI50 [32] was > 100 µM (inactive) and the GI50 [33] was > 100 µM (inactive). For the same compound, the GI50 [34] was > 100 µM (inactive), the GI50 [35] was 87.9 µM (inactive) and the GI50 [36] was > 100 µM (inactive). For the same compound, the GI50 [37] was > 100 µM (inactive), the GI50 [38] was > 100 µM (inactive) and the GI50 [39] was > 100 µM (inactive). The GI50 [40] was > 100 µM (inactive), the GI50 [41] was > 100 µM (inactive) and the GI50 [42] was > 100 µM (inactive). The GI50 [43] was > 100 µM (inactive), the GI50 [44] was > 100 µM (inactive) and the GI50 [45] was > 100 µM (inactive). For the same compound, the GI50 [46] was > 100 µM (inactive), the GI50 [47] was > 100 µM (inactive) and the GI50 [48] was > 100 µM (inactive). The GI50 [49] was > 100 µM (inactive), the GI50 [50] was > 100 µM (inactive) and the GI50 [51] was > 100 µM (inactive). The GI50 [52] was > 100 µM (inactive), the GI50 [53] was > 100 µM (inactive) and the GI50 [54] was > 100 µM (inactive).
For NC(=O)c1csc(C2CCC(CO)O2)n1 (stereo not given), the GI50 [55] was > 100 µM (inactive), the GI50 [1] was > 100 µM (inactive) and the GI50 [2] was > 100 µM (inactive). The GI50 [3] was > 100 µM (inactive), the GI50 [4] was > 100 µM (inactive) and the GI50 [5] was > 100 µM (inactive). The GI50 [6] was > 100 µM (inactive), the GI50 [8] was > 100 µM (inactive) and the GI50 [9] was > 100 µM (inactive). The GI50 [10] was > 100 µM (inactive), the GI50 [11] was > 100 µM (inactive) and the GI50 [12] was > 100 µM (inactive). The GI50 [13] was > 100 µM, the GI50 [14] was > 100 µM (inactive) and the GI50 [56] was > 100 µM (inactive). For the same compound, the GI50 [15] was > 100 µM (inactive), the GI50 [16] was > 100 µM (inactive) and the GI50 [17] was > 100 µM (inactive). The GI50 [18] was > 100 µM (inactive), the GI50 [19] was > 100 µM (inactive) and the GI50 [20] was > 100 µM (inactive). The GI50 [21] was > 100 µM (inactive), the GI50 [57] was > 100 µM (inactive) and the GI50 [22] was > 100 µM (inactive). The GI50 [23] was > 100 µM (inactive), the GI50 [24] was > 100 µM (inactive) and the GI50 [25] was > 100 µM (inactive). For the same compound, the GI50 [26] was > 100 µM (inactive), the GI50 [58] was > 100 µM (inactive) and the GI50 [27] was > 100 µM (inactive). The GI50 [28] was > 100 µM (inactive), the GI50 [29] was > 100 µM (inactive) and the GI50 [30] was > 100 µM (inactive). The GI50 [31] was > 100 µM (inactive), the GI50 [32] was > 100 µM (inactive) and the GI50 [33] was > 100 µM (inactive). The GI50 [34] was > 100 µM (inactive), the GI50 [36] was > 100 µM (inactive) and the GI50 [37] was > 100 µM (inactive). The GI50 [38] was > 100 µM (inactive), the GI50 [39] was > 100 µM (inactive) and the GI50 [40] was > 100 µM (inactive). The GI50 [42] was > 100 µM (inactive), the GI50 [43] was > 100 µM (inactive) and the GI50 [44] was > 100 µM (inactive). For the same compound, the GI50 [46] was > 100 µM (inactive), the GI50 [48] was > 100 µM (inactive) and the GI50 [49] was > 100 µM (inactive). For the same compound, the GI50 [50] was > 100 µM (inactive), the GI50 [51] was > 100 µM (inactive) and the GI50 [52] was > 100 µM (inactive). The GI50 [53] was > 100 µM (inactive).
With NS(=O)(=O)c1ccc(NC(=O)CC(=O)Nc2ccc(S(N)(=O)=O)cc2)cc1 the GI50 [55] was > 100 µM (inactive), the GI50 [1] was > 100 µM (inactive) and the GI50 [2] was > 100 µM (inactive). The GI50 [3] was > 100 µM (inactive), the GI50 [4] was > 100 µM (inactive) and the GI50 [5] was > 100 µM (inactive). The GI50 [6] was > 100 µM (inactive), the GI50 [7] was > 100 µM (inactive) and the GI50 [8] was > 100 µM (inactive). For the same compound, the GI50 [9] was > 100 µM (inactive), the GI50 [10] was > 100 µM (inactive) and the GI50 [11] was > 100 µM (inactive). The GI50 [12] was > 100 µM (inactive), the GI50 [13] was > 100 µM and the GI50 [14] was > 100 µM (inactive). The GI50 [56] was > 100 µM (inactive), the GI50 [15] was > 100 µM (inactive) and the GI50 [16] was > 100 µM (inactive). The GI50 [17] was > 100 µM (inactive), the GI50 [18] was > 100 µM (inactive) and the GI50 [19] was > 100 µM (inactive). The GI50 [20] was > 100 µM (inactive), the GI50 [57] was > 100 µM (inactive) and the GI50 [22] was > 100 µM (inactive). For the same compound, the GI50 [23] was > 100 µM (inactive), the GI50 [24] was > 100 µM (inactive) and the GI50 [25] was > 100 µM (inactive). For the same compound, the GI50 [26] was > 100 µM (inactive), the GI50 [58] was > 100 µM (inactive) and the GI50 [27] was > 100 µM (inactive). For the same compound, the GI50 [29] was > 100 µM (inactive), the GI50 [30] was > 100 µM (inactive) and the GI50 [31] was > 100 µM (inactive). The GI50 [32] was > 100 µM (inactive), the GI50 [33] was > 100 µM (inactive) and the GI50 [34] was > 100 µM (inactive). For the same compound, the GI50 [36] was > 100 µM (inactive), the GI50 [37] was > 100 µM (inactive) and the GI50 [38] was > 100 µM (inactive). For the same compound, the GI50 [39] was > 100 µM (inactive), the GI50 [40] was > 100 µM (inactive) and the GI50 [41] was > 100 µM (inactive). The GI50 [42] was > 100 µM (inactive), the GI50 [43] was > 100 µM (inactive) and the GI50 [44] was > 100 µM (inactive). The GI50 [45] was > 100 µM (inactive), the GI50 [46] was > 100 µM (inactive) and the GI50 [47] was > 100 µM (inactive). The GI50 [48] was > 100 µM (inactive), the GI50 [49] was > 100 µM (inactive) and the GI50 [50] was > 100 µM (inactive). The GI50 [51] was > 100 µM (inactive), the GI50 [52] was > 100 µM (inactive) and the GI50 [53] was > 100 µM (inactive).
